From ChEMBL document CHEMBL3351290, “Structural studies provide clues for analog design of specific inhibitors of Cryptosporidium hominis thymidylate synthase-dihydrofolate reductase” (Bioorg Med Chem Lett, 2014)

How the values were obtained:
[1] = Toxicity in Cryptosporidium hominis Iowa sporozoites infected human HCT8 cells assessed as effect on cell viability by microscopy; type: cell-based; conditions: hct-8
[2] = biological target: Thymidylate synthase (Homo sapiens, UniProt P04818); test: Inhibition of human thymidylate synthase
Sequence of Thymidylate synthase (P04818 whole entry): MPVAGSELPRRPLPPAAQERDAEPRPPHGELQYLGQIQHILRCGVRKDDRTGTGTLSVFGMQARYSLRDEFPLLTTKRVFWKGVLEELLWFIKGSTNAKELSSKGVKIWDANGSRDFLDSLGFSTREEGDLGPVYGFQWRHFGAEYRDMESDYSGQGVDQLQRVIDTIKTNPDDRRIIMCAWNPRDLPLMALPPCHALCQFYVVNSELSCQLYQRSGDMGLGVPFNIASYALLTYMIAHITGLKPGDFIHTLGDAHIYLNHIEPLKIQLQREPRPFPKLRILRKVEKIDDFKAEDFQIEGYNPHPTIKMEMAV

[3] = Toxicity in Cryptosporidium hominis Iowa sporozoites infected human HCT8 cells assessed as effect on cell morphology by microscopy; type: cell-based; conditions: hct-8
[4] = system: Cryptosporidium hominis; test: Antiparasitic activity against Cryptosporidium hominis Iowa intracellular forms infected in human HCT8 cells assessed as reduction in parasite infection dosed 2 hrs after parasite infection; type: functional, organism-based; conditions: HCT-8, 2 h
[5] = system: Cryptosporidium hominis; test: Antiparasitic activity against compound pre-treated Cryptosporidium hominis Iowa sporozoites infected in human HCT8 cells assessed as reduction in parasite infection; type: functional, organism-based; conditions: HCT-8
[6] = Toxicity in Cryptosporidium hominis Iowa sporozoites infected human HCT8 cells assessed as effect on RNA levels; type: cell-based; conditions: hct-8
[7] = biological target: T1, Dihydrofolate reductase (Homo sapiens, UniProt P00374); test: Inhibition of human DHFR
T1 sequence (P00374 whole entry): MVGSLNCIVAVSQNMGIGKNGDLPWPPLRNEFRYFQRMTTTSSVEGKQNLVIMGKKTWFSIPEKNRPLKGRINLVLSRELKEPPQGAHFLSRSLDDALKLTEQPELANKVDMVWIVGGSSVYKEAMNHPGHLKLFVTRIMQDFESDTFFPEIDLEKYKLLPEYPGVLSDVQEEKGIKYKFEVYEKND

Nc1nc2[nH]cc(Cc3ccc(C(=O)N[C@@H](CCC(=O)O)C(=O)O)cc3)c2c(=O)[nH]1
Activity [1]: Non-toxic
IC50 [2]: 1800 nM
Activity [3]: Non-toxic
EC50 [4]: 1000 nM
EC50 [5]: 1000 nM
Activity [6]: Non-toxic
IC50 [7]: 640 nM
